The nature of the data set: pH stability of prodrugs of DFMO in PBS buffer (LC/MS/MS). The class given is physicochemical. Here is the method: The stability of prodrugs of DFMO to different pH conditions over time was assayed. Prodrugs were reconstituted in dimethylsulfoxide (DMSO), diluted into phosphate buffered saline (PBS) of different pH values, incubated for different lengths of time at room temperature, and then analyzed by LC/MS/MS for changes in the levels of each prodrug. […] Following this initial phase, the (2)-prodrug was reasonably stable over the next 24 hours so that less than 20% of the intact prodrug was lost at pH 3 and 5, and about 60% of the intact material was lost at pH 8 over a day. […] Similar results were obtained with the other prodrugs tested.

Each structure is given as a SMILES string.

For the compound `CC(OC(=O)NCCCC(N)(C(=O)O)C(F)F)OC(=O)C(C)C` (stereo not drawn) [(2)-prodrug, 2-amino-2-(difluoromethyl)-5-[1-(2-methylpropanoyloxy)ethoxycarbonylamino]pentanoic acid], the “intact prodrug lost over the next 24 hours” value reads like this: (PBS pH 3, room temperature, 24 hours following initial phase) “less than 20%”; (PBS pH 5, room temperature, 24 hours following initial phase) “less than 20%”. In addition, the “decrease in the amount of intact, non-degraded prodrug over the first hour of incubation” value by setting is: (PBS pH 3, room temperature) “about 60%”; (PBS pH 5, room temperature) 30-35%; (PBS pH 8, room temperature) 30-35%. Moreover, the “intact material lost over a day” value (PBS pH 8, room temperature, 24 hours following initial phase) is recorded as “about 60%”.
